The format of data set [1] is in vivo, human. The settings on record: for Effect of multiple-dose cilofexor on rosuvastatin exposure (AUC and Cmax): rosuvastatin 10 mg; for Effect of multiple-dose cilofexor on rosuvastatin exposure (AUC and Cmax) / Effect of multiple-dose cilofexor on pravastatin exposure (AUC and Cmax): vs alone; for Effect of multiple-dose cilofexor on pravastatin exposure (AUC and Cmax): pravastatin 40 mg; for Effect of multiple-dose cilofexor on midazolam exposure (AUC and Cmax): midazolam 2 mg, vs midazolam alone.

Data set [2] is classed as in vivo, human. The settings on record: for Effect of grapefruit juice on cilofexor exposure (AUC and Cmax): grapefruit juice 16 ounces; for Effect of grapefruit juice on cilofexor exposure (AUC and Cmax) / Effect of multiple-dose voriconazole on cilofexor exposure (AUC): vs cilofexor alone; for Effect of multiple-dose voriconazole on cilofexor exposure (AUC): voriconazole 200 mg BID.

Data set [3] concerns CYP2C8. The settings on record: in vitro; cited from earlier work.
Data set [4] relates to CYP3A. As to conditions: in vitro; cited from earlier work.
Data set [5] deals with CYP2C9. As to conditions: in vitro; cited from earlier work.
The subject of data set [6] is OATP1B1. As to conditions: in vitro; ref data on file, Gilead Sciences, Inc.; cited from earlier work.
The subject of data set [7] is OATP1B3. The settings on record: in vitro; ref data on file, Gilead Sciences, Inc.; cited from earlier work.
Data set [8] deals with OATP2B1. The settings on record: in vitro; ref data on file, Gilead Sciences, Inc.; cited from earlier work.
The conditions of data set [9]: cited from earlier work.
The conditions of data set [10]: cited from earlier work. This is another data set of the same source.
In data set [11] the test system is P-gp. The settings on record: in vitro; cited from earlier work.
Data set [12] concerns BCRP. As to conditions: in vitro; cited from earlier work.
In data set [13] the test system is NTCP. The settings on record: in vitro; cited from earlier work.
In data set [14] the test system is bile salt export pump. The settings on record: in vitro; cited from earlier work.
Data set [15] deals with organic anion transporter (OAT)1. The settings on record: in vitro; cited from earlier work.
For data set [16], the system named is OAT3. As to conditions: in vitro; cited from earlier work.
Data set [17] relates to organic cation transporter (OCT)2. The settings on record: in vitro; cited from earlier work.
Data set [18] relates to multidrug and toxin extrusion protein (MATE) 1. The settings on record: in vitro; cited from earlier work.
Data set [19] relates to MATE2-K. The settings on record: in vitro; cited from earlier work.
Data set [20] relates to CYP2C8. The settings on record: in vitro; rCYP2C8 showing the fastest rate of metabolism; cited from earlier work.
The subject of data set [21] is CYP2C19. The settings on record: in vitro; cited from earlier work.
The subject of data set [22] is CYP3A. As to conditions: in vitro; cited from earlier work. The source holds these as a separate data set.
Data set [23] concerns P-glycoprotein (P-gp). The settings on record: in vitro; cited from earlier work.
The test system of data set [24] is breast cancer resistance protein (BCRP). The settings on record: in vitro; cited from earlier work.
Data set [25] concerns sodium taurocholate co-transporting polypeptide (NTCP). As to conditions: in vitro; cited from earlier work.
The subject of data set [26] is OATP1B1. The settings on record: in vitro; cited from earlier work.
Data set [27] relates to OATP1B3. As to conditions: in vitro; cited from earlier work.
The subject of data set [28] is OATP2B1. As to conditions: in vitro; cited from earlier work.
For data set [29] the following is noted: dose range of 10 to 100 mg; cited from earlier work.
Where [30] appears, read: following multiple-dose rifampin 600 mg.
Where [31] appears, read: with multiple-dose gemfibrozil 600 mg BID.
Setting [32] is: with single-dose cyclosporine 600 mg.
Setting [33] is: with single-dose rifampin 600 mg.

“Also recorded” adds a separate entry of the source. Read-outs that look alike come from different tables or passages of the source.

For the molecule `CC(C)c1nc(N(C)S(C)(=O)=O)nc(-c2ccc(F)cc2)c1/C=C/[C@@H](O)C[C@@H](O)CC(=O)O` [rosuvastatin], the “Effect of multiple-dose cilofexor on rosuvastatin exposure (AUC and Cmax)” value is “did not alter” in [1] and “similar” in data set [1] (listed as Rosuvastatin).

Regarding `CC[C@H](C)C(=O)O[C@H]1C[C@H](O)C=C2C=C[C@H](C)[C@H](CC[C@@H](O)C[C@@H](O)CC(=O)O)[C@H]21` [pravastatin], the “Effect of multiple-dose cilofexor on pravastatin exposure (AUC and Cmax)” value in data set [1] was “did not affect; also recorded: did not alter”; in data set [1] (listed as Pravastatin), “similar”.

For the molecule `CC(C)c1c(C(=O)Nc2ccccc2O)c(-c2ccccc2)c(-c2ccc(F)cc2)n1CC[C@@H](O)C[C@@H](O)CC(=O)O` [o-OH-atorvastatin, o-hydroxyatorvastatin], the “o-OH-atorvastatin AUC and Cmax with multiple-dose cilofexor compared to atorvastatin alone” value in [1] (atorvastatin 10 mg) is “similar”.

In the case of `O=C(O)c1ccnc(N2CC(O)(c3ccc(OCc4c(-c5c(Cl)cccc5Cl)noc4C4CC4)cc3Cl)C2)c1` [Cilofexor], the “Cilofexor AUC compared with cilofexor alone” value came to 33% in data set [2] (setting [30]), 175% in data set [2] (setting [31]), 651% in data set [2] (setting [32]) and 795% in [2] (setting [33]). Moreover, the “Cilofexor Cmax compared with cilofexor alone” value turned out to be 35% in [2] (setting [30]), 139% in data set [2] (setting [31]), 512% in [2] (setting [32]) and 547% in data set [2] (setting [33]). Also, the “Effect of grapefruit juice on cilofexor exposure (AUC and Cmax)” value is “similar” in data set [2] and “did not affect” in data set [2] (listed as cilofexor). The “Effect of multiple-dose voriconazole on cilofexor exposure (AUC)” value is “similar” in data set [2] and “did not affect; also recorded: did not impact” in [2] (listed as cilofexor). Besides, the “Cilofexor Cmax lower than cilofexor alone” value in [2] (with multiple-dose voriconazole) was 23%. For the same molecule, the “Median cilofexor t½ longer than cilofexor alone” value is reported as “approximately 2.5 fold” in data set [2] (with single-dose cyclosporine) and “approximately 2.8 fold” in [2] (with single-dose rifampin). In addition, the Mechanism-based inhibition result in data set [3], in data set [4] and in data set [5] was “not a mechanism-based inhibitor” each time. For the same molecule, the 50% inhibitory concentration (IC50) – broadly, the concentration needed to halve the response being measured – in [6] is 680 nM; in [7] it was 410 nM; in data set [8], 210 nM. In addition, the “Protein binding in human plasma” value in data set [9] is on record as greater than 99%. For the same molecule, the “Cilofexor dose eliminated in feces” value in data set [10] is given as 96.7%. In [10], the “Dose remaining as intact cilofexor (feces)” value is 34.1%. In addition, the “Inhibition of P-gp” value in data set [11] is given as “little to no inhibition”. Moreover, in data set [12], the “Inhibition of BCRP” value is “little to no inhibition”. In addition, the “Inhibition of NTCP” value in data set [13] is “little to no inhibition”. For the same molecule, the “Inhibition of bile salt export pump” value in [14] is “little to no inhibition”. For the same molecule, the “Inhibition of OAT1” value in data set [15] was “little to no inhibition”. For the same molecule, the “Inhibition of OAT3” value in data set [16] was “little to no inhibition”. Moreover, the “Inhibition of OCT2” value in data set [17] was “little to no inhibition”. Besides, the “Inhibition of MATE1” value in data set [18] is recorded as “little to no inhibition”. In data set [19], the “Inhibition of MATE2-K” value is “little to no inhibition”. For the same molecule, the “Substrate of CYP2C8” value in data set [20] was “substrate”. Moreover, the “Substrate of CYP2C19” value in [21] is on record as “substrate”. The “Substrate of CYP3A” value in [22] is given as “substrate”. Besides, the “Substrate of P-gp” value in [23] was “substrate”. In addition, in data set [24], the “Substrate of BCRP” value is given as “substrate”. The “Substrate of NTCP” value in [25] is recorded as “substrate”. In addition, the “Substrate of OATP1B1” value in data set [26] is on record as “substrate”. For the same molecule, the “Substrate of OATP1B3” value in [27] is “substrate”. The “Substrate of OATP2B1” value in data set [28] is on record as “substrate”. For the same molecule, the “Dose proportionality of plasma exposure” value in [29] was “less than dose-proportional”.

For the molecule `Cc1ncc2n1-c1ccc(Cl)cc1C(c1ccccc1F)=NC2` [midazolam], the “Effect of multiple-dose cilofexor on midazolam exposure (AUC and Cmax)” value is on record as “did not affect; also recorded: did not alter” in [1] and “similar” in data set [1] (listed as Midazolam).

Values taken from PMC10085937 (Clinical Pharmacokinetics, 2023).
